Reference: ChEMBL document CHEMBL3045696, “CsFCelite catalyzed facile N-alkylation of 2(3H)-benzoxazolones and antimicrobial properties of 2-substituted benzoxazole and 3-substituted-2(3H)-benzoxazolone derivatives” (2011)
In brackets after ≈: the same amount, converted by molar mass. Activity calls are given as the source filed them. No cut-off for these calls is given here.

How the values were obtained:
Assay type in all cases: functional
Klebsiella pneumoniae = experiment: Antimicrobial activity against Klebsiella pneumoniae MTCC 618 by broth dilution method
Aspergillus niger [1] = experiment: Antimicrobial activity against Aspergillus niger MTCC 282 at 100 ug after 48 hr by agar well diffusion method; details: for zone of inhibition at 100 µg/disc: MTCC 282, 48 h, read-out: IZ
Saccharomyces cerevisiae [2] = experiment: Antimicrobial activity against Saccharomyces cerevisiae MTCC 36 at 150 ug after 48 hr by agar well diffusion method; details: for zone of inhibition at 150 µg/disc: MTCC 36, 48 h, read-out: IZ
Saccharomyces cerevisiae [3] = experiment: Antimicrobial activity against Saccharomyces cerevisiae MTCC 36 at 100 ug after 48 hr by agar well diffusion method; details: for zone of inhibition at 100 µg/disc: MTCC 36, 48 h, read-out: IZ
Staphylococcus aureus = experiment: Antimicrobial activity against Staphylococcus aureus MTCC 96 by broth dilution method
Rhizopus arrhizus [4] = experiment: Antimicrobial activity against Rhizopus oryzae MTCC 262 at 100 ug after 48 hr by agar well diffusion method; details: for zone of inhibition at 100 µg/disc: MTCC 262, 48 h, read-out: IZ
Escherichia coli = experiment: Antimicrobial activity against Escherichia coli MTCC 443 by broth dilution method
Aspergillus niger [5] = experiment: Antimicrobial activity against Aspergillus niger MTCC 282 at 150 ug after 48 hr by agar well diffusion method; details: for zone of inhibition at 150 µg/disc: MTCC 282, 48 h, read-out: IZ
Candida albicans [6] = experiment: Antimicrobial activity against Candida albicans MTCC 227 at 100 ug after 48 hr by agar well diffusion method; details: for zone of inhibition at 100 µg/disc: MTCC 227, 48 h, read-out: IZ
Bacillus subtilis = experiment: Antimicrobial activity against Bacillus subtilis MTCC 441 by broth dilution method
Rhizopus arrhizus [7] = experiment: Antimicrobial activity against Rhizopus oryzae MTCC 262 at 150 ug after 48 hr by agar well diffusion method; details: for zone of inhibition at 150 µg/disc: MTCC 262, 48 h, read-out: IZ
Pseudomonas aeruginosa = experiment: Antimicrobial activity against Pseudomonas aeruginosa MTCC 741 by broth dilution method
[8] = system: Staphylococcus epidermidis; experiment: Antimicrobial activity against Staphylococcus epidermidis by broth dilution method
Candida albicans [9] = experiment: Antimicrobial activity against Candida albicans MTCC 227 at 150 ug after 48 hr by agar well diffusion method; details: for zone of inhibition at 150 µg/disc: MTCC 227, 48 h, read-out: IZ

| SMILES | MIC (Klebsiella pneumoniae) | zone of inhibition at 100 µg/disc (Aspergillus niger [1]) | MIC (Staphylococcus aureus) | Activity (Rhizopus arrhizus [4]) | MIC (Escherichia coli) | zone of inhibition at 150 µg/disc (Aspergillus niger [5]) | zone of inhibition at 100 µg/disc (Candida albicans [6]) | MIC (Bacillus subtilis) | zone of inhibition at 150 µg/disc (Rhizopus arrhizus [7]) | MIC (Pseudomonas aeruginosa) | MIC [8] | zone of inhibition at 150 µg/disc (Candida albicans [9]) | Activity (Aspergillus niger [1]) | Activity (Saccharomyces cerevisiae [2]) | Activity (Saccharomyces cerevisiae [3]) | Activity (Aspergillus niger [5]) | Activity (Rhizopus arrhizus [7]) | zone of inhibition at 100 µg/disc (Rhizopus arrhizus [4]) | Activity (Candida albicans [6]) | Activity (Candida albicans [9]) | other results |
| --- | --- | --- | --- | --- | --- | --- | --- | --- | --- | --- | --- | --- | --- | --- | --- | --- | --- | --- | --- | --- | --- |
| CC(C)=CCn1c(=O)oc2ccc(Cl)cc21 | 150 µg/mL (≈ 631 µM) | 8 mm | 150 µg/mL (≈ 631 µM) | inactive | 150 µg/mL (≈ 631 µM) | 11 mm | 7 mm | 150 µg/mL (≈ 631 µM) | 9 mm | 75 µg/mL (≈ 316 µM) | 75 µg/mL (≈ 316 µM) | 10 mm |  |  |  |  |  |  |  |  | zone of inhibition at 150 µg/disc (Saccharomyces cerevisiae [2]): 10 mm; zone of inhibition at 100 µg/disc (Saccharomyces cerevisiae [3]): 8 mm |
| CC1(C)S[C@@H]2[C@H](NC(=O)Cc3ccccc3)C(=O)N2[C@H]1C(=O)O [PENICILLIN G] | 6.25 µg/mL (≈ 18.7 µM) |  | 1.56 µg/mL (≈ 4.67 µM) |  | 12.5 µg/mL (≈ 37.4 µM) |  |  | 1.56 µg/mL (≈ 4.67 µM) |  | 12.5 µg/mL (≈ 37.4 µM) | 3.12 µg/mL (≈ 9.35 µM) |  |  |  |  |  |  |  |  |  |  |
| CN[C@@H]1[C@H](O[C@H]2[C@H](O[C@H]3[C@H](O)[C@@H](O)[C@H](N=C(N)N)[C@@H](O)[C@@H]3N=C(N)N)O[C@@H](C)[C@]2(O)C=O)O[C@@H](CO)[C@H](O)[C@H]1O [STREPTOMYCIN] | 3.12 µg/mL (≈ 5.37 µM) |  | 6.25 µg/mL (≈ 10.7 µM) |  | 6.25 µg/mL (≈ 10.7 µM) |  |  | 6.25 µg/mL (≈ 10.7 µM) |  | 1.56 µg/mL (≈ 2.69 µM) | 3.12 µg/mL (≈ 5.37 µM) |  |  |  |  |  |  |  |  |  |  |
| c1ccc(N2CCN(c3nc4ccccc4o3)CC2)nc1 | 150 µg/mL (≈ 535 µM) |  | 150 µg/mL (≈ 535 µM) | inactive | 150 µg/mL (≈ 535 µM) |  | 8 mm | 150 µg/mL (≈ 535 µM) |  | 75 µg/mL (≈ 268 µM) | 150 µg/mL (≈ 535 µM) | 10 mm | inactive | inactive | inactive | inactive | inactive |  |  |  |  |
| O=c1oc2ccc(Cl)cc2n1CCCN1CCOCC1 | 75 µg/mL (≈ 253 µM) | 8 mm | 75 µg/mL (≈ 253 µM) |  | 37.5 µg/mL (≈ 126 µM) | 10 mm | 8 mm | 75 µg/mL (≈ 253 µM) | 13 mm | 37.5 µg/mL (≈ 126 µM) | 75 µg/mL (≈ 253 µM) | 10 mm |  |  |  |  |  | 10 mm |  |  | zone of inhibition at 150 µg/disc (Saccharomyces cerevisiae [2]): 10 mm; zone of inhibition at 100 µg/disc (Saccharomyces cerevisiae [3]): 8 mm |
| CN1CCN(c2nc3ccccc3o2)CC1 | 150 µg/mL (≈ 690 µM) |  | 150 µg/mL (≈ 690 µM) | inactive | 150 µg/mL (≈ 690 µM) |  |  | 150 µg/mL (≈ 690 µM) |  | 150 µg/mL (≈ 690 µM) | 75 µg/mL (≈ 345 µM) |  | inactive | inactive | inactive | inactive | inactive |  | inactive | inactive |  |
| O=c1oc2ccc(Cl)cc2n1Cc1ccccc1 | 75 µg/mL (≈ 289 µM) |  | 75 µg/mL (≈ 289 µM) | inactive | 150 µg/mL (≈ 578 µM) |  |  | 150 µg/mL (≈ 578 µM) |  | 150 µg/mL (≈ 578 µM) | 75 µg/mL (≈ 289 µM) |  | inactive | inactive | inactive | inactive | inactive |  | inactive | inactive |  |
| O=c1oc2ccc(Cl)cc2n1CCCN1CCN(c2ccccn2)CC1 | 150 µg/mL (≈ 402 µM) |  | 150 µg/mL (≈ 402 µM) | inactive | 150 µg/mL (≈ 402 µM) |  |  | 150 µg/mL (≈ 402 µM) |  | 75 µg/mL (≈ 201 µM) | 150 µg/mL (≈ 402 µM) |  | inactive | inactive | inactive | inactive | inactive |  | inactive | inactive |  |
| C#CCn1c(=O)oc2ccc(Cl)cc21 | 75 µg/mL (≈ 361 µM) | 15 mm | 75 µg/mL (≈ 361 µM) |  | 37.5 µg/mL (≈ 181 µM) | 18 mm | 8 mm | 75 µg/mL (≈ 361 µM) | 19 mm | 37.5 µg/mL (≈ 181 µM) | 75 µg/mL (≈ 361 µM) | 11 mm |  |  |  |  |  | 15 mm |  |  | zone of inhibition at 150 µg/disc (Saccharomyces cerevisiae [2]): 18 mm; zone of inhibition at 100 µg/disc (Saccharomyces cerevisiae [3]): 14 mm |
| C=CCCn1c(=O)oc2ccc(Cl)cc21 | 37.5 µg/mL (≈ 168 µM) |  | 150 µg/mL (≈ 671 µM) |  | 150 µg/mL (≈ 671 µM) |  |  | 150 µg/mL (≈ 671 µM) | 13 mm | 150 µg/mL (≈ 671 µM) | 150 µg/mL (≈ 671 µM) |  | inactive | inactive | inactive | inactive |  | 9 mm | inactive | inactive |  |
| c1ccc2oc(N3CCCCC3)nc2c1 | 150 µg/mL (≈ 742 µM) | 8 mm | 150 µg/mL (≈ 742 µM) |  | 150 µg/mL (≈ 742 µM) | 10 mm | 9 mm | 150 µg/mL (≈ 742 µM) | 11 mm | 150 µg/mL (≈ 742 µM) | 150 µg/mL (≈ 742 µM) | 12 mm |  |  |  |  |  | 8 mm |  |  | zone of inhibition at 150 µg/disc (Saccharomyces cerevisiae [2]): 12 mm; zone of inhibition at 100 µg/disc (Saccharomyces cerevisiae [3]): 9 mm |
| c1ccc2oc(N3CCOCC3)nc2c1 | 37.5 µg/mL (≈ 184 µM) |  | 75 µg/mL (≈ 367 µM) | inactive | 150 µg/mL (≈ 734 µM) |  | 7 mm | 150 µg/mL (≈ 734 µM) |  | 150 µg/mL (≈ 734 µM) | 150 µg/mL (≈ 734 µM) | 9 mm | inactive | inactive | inactive | inactive | inactive |  |  |  |  |
| c1ccc2oc(N3CCCNCC3)nc2c1 | 75 µg/mL (≈ 345 µM) |  | 150 µg/mL (≈ 690 µM) |  | 75 µg/mL (≈ 345 µM) |  |  | 150 µg/mL (≈ 690 µM) | 10 mm | 75 µg/mL (≈ 345 µM) | 150 µg/mL (≈ 690 µM) |  | inactive | inactive | inactive | inactive |  | 8 mm | inactive | inactive |  |
| O=c1oc2ccc(Cl)cc2n1CCCN1CCN(c2ccccc2)CC1 | 150 µg/mL (≈ 403 µM) |  | 150 µg/mL (≈ 403 µM) | inactive | 150 µg/mL (≈ 403 µM) |  |  | 150 µg/mL (≈ 403 µM) |  | 150 µg/mL (≈ 403 µM) | 150 µg/mL (≈ 403 µM) |  | inactive | inactive | inactive | inactive | inactive |  | inactive | inactive |  |
| OCCN1CCN(c2nc3ccccc3o2)CC1 | 75 µg/mL (≈ 303 µM) |  | 75 µg/mL (≈ 303 µM) | inactive | 150 µg/mL (≈ 607 µM) |  |  | 150 µg/mL (≈ 607 µM) |  | 75 µg/mL (≈ 303 µM) | 150 µg/mL (≈ 607 µM) |  | inactive | inactive | inactive | inactive | inactive |  | inactive | inactive |  |
| O=c1oc2ccc(Cl)cc2n1CCCN1CCN(Cc2ccccc2)CC1 | 150 µg/mL (≈ 389 µM) | 7 mm | 150 µg/mL (≈ 389 µM) | inactive | 150 µg/mL (≈ 389 µM) | 9 mm |  | 150 µg/mL (≈ 389 µM) |  | 75 µg/mL (≈ 194 µM) | 75 µg/mL (≈ 194 µM) | 9 mm |  | inactive | inactive |  | inactive |  | inactive |  |  |
| O=c1oc2ccc(Cl)cc2n1CCCN1CCN(c2ncccn2)CC1 | 150 µg/mL (≈ 401 µM) |  | 150 µg/mL (≈ 401 µM) | inactive | 150 µg/mL (≈ 401 µM) |  |  | 150 µg/mL (≈ 401 µM) |  | 150 µg/mL (≈ 401 µM) | 150 µg/mL (≈ 401 µM) |  | inactive | inactive | inactive | inactive | inactive |  | inactive | inactive |  |
| Clc1cccc(N2CCN(c3nc4ccccc4o3)CC2)c1 | 150 µg/mL (≈ 478 µM) |  | 75 µg/mL (≈ 239 µM) | inactive | 150 µg/mL (≈ 478 µM) |  |  | 150 µg/mL (≈ 478 µM) |  | 150 µg/mL (≈ 478 µM) | 150 µg/mL (≈ 478 µM) |  | inactive | inactive | inactive | inactive | inactive |  | inactive | inactive |  |
| c1cnc(N2CCN(c3nc4ccccc4o3)CC2)nc1 | 75 µg/mL (≈ 267 µM) |  | 150 µg/mL (≈ 533 µM) |  | 150 µg/mL (≈ 533 µM) |  |  | 150 µg/mL (≈ 533 µM) | 10 mm | 75 µg/mL (≈ 267 µM) | 150 µg/mL (≈ 533 µM) |  | inactive | inactive | inactive | inactive |  | 8 mm | inactive | inactive |  |
| CCN1CCN(c2nc3ccccc3o2)CC1 | 75 µg/mL (≈ 324 µM) | 9 mm | 150 µg/mL (≈ 649 µM) | inactive | 150 µg/mL (≈ 649 µM) | 12 mm | 8 mm | 150 µg/mL (≈ 649 µM) |  | 150 µg/mL (≈ 649 µM) | 75 µg/mL (≈ 324 µM) | 10 mm |  |  |  |  | inactive |  |  |  | zone of inhibition at 150 µg/disc (Saccharomyces cerevisiae [2]): 9 mm; zone of inhibition at 100 µg/disc (Saccharomyces cerevisiae [3]): 7 mm |
